Converted amounts (≈) assume the structure as drawn.
Experiments:
Assay type in all cases: functional
[1] = tested on: Mycobacterium tuberculosis; test: Antitubercular activity against isoniazid, rifampicin and ethambutol-resistant Mycobacterium tuberculosis clinical isolate after 28 days by agar dilution method; conditions: 672 h
[2] = tested on: Mycobacterium tuberculosis; test: Ratio of rifampicin MIC to compound MIC for multidrug-resistant Mycobacterium tuberculosis clinical isolate
[3] = tested on: Mycobacterium tuberculosis; test: Ratio of isoniazid MIC to compound MIC for multidrug-resistant Mycobacterium tuberculosis clinical isolate
[4] = tested on: Mycobacterium tuberculosis; test: Ratio of ciprofloxacin MIC to compound MIC for multidrug-resistant Mycobacterium tuberculosis clinical isolate
[5] = tested on: Mycobacterium tuberculosis; test: Ratio of ethambutol MIC to compound MIC for multidrug-resistant Mycobacterium tuberculosis clinical isolate

Row | Compound | MIC [1] | other results
1 | Cc1ccc(/C=C2\CN([C@H](C)c3ccccc3)CC3=C2OC(N)=C(c2nc(-c4ccc(Cl)cc4)no2)C3c2ccc(C)cc2)cc1 (stereo in doubt; 9d) | 1.24 µM (≈ 0.778 µg/mL) | 
2 | CC[C@@H](CO)NCCN[C@@H](CC)CO [ETHAMBUTOL] | 61.2 µM (≈ 12.5 µg/mL) | 
3 | NNC(=O)c1ccncc1 [ISONIAZID] | 11.4 µM (≈ 1.56 µg/mL) | 
4 | C[C@H](c1ccccc1)N1CC2=C(OC(N)=C(c3nc(-c4ccc(Cl)cc4)no3)C2c2ccccc2)/C(=C/c2ccccc2)C1 (stereo in doubt; 10b) | 2.6 µM (≈ 1.56 µg/mL) | 
5 | C[C@H](c1ccccc1)N1CC2=C(OC(N)=C(c3nc(-c4ccccc4)no3)C2c2ccccc2)/C(=C/c2ccccc2)C1 (stereo in doubt; 10a) | 5.54 µM (≈ 3.13 µg/mL) | 
6 | C[C@H](c1ccccc1)N1CC2=C(OC(N)=C(c3nc(-c4ccccc4)no3)C2c2ccccc2Cl)/C(=C/c2ccccc2Cl)C1 (stereo in doubt; 9e) | 1.23 µM (≈ 0.779 µg/mL) | 
7 | CO[C@H]1/C=C/O[C@@]2(C)Oc3c(C)c(O)c4c(O)c(c(/C=N/N5CCN(C)CC5)c(O)c4c3C2=O)NC(=O)/C(C)=C\C=C\[C@H](C)[C@H](O)[C@@H](C)[C@@H](O)[C@@H](C)[C@H](OC(C)=O)[C@@H]1C [RIFAMPIN] | 3.8 µM (≈ 3.13 µg/mL) | 
8 | C[C@H](c1ccccc1)N1CC2=C(OC(N)=C(c3nc(-c4ccc(Cl)cc4)no3)C2c2ccccc2Cl)/C(=C/c2ccccc2Cl)C1 (stereo in doubt; 9f) | 0.6 µM (≈ 0.401 µg/mL) | 
9 | C[C@H](c1ccccc1)N1CC2=C(OC(N)=C(c3nc(-c4ccc(Cl)cc4)no3)C2c2ccc(Cl)cc2Cl)/C(=C/c2ccc(Cl)cc2Cl)C1 (stereo in doubt; 9h) | 0.14 µM (≈ 0.103 µg/mL) | Ratio [2]: 27.1; Ratio [3]: 81.3; Ratio [4]: 269.5; Ratio [5]: 437
10 | C[C@H](c1ccccc1)N1CC2=C(OC(N)=C(c3nc(-c4ccccc4)no3)C2c2ccc(Cl)cc2Cl)/C(=C/c2ccc(Cl)cc2Cl)C1 (stereo in doubt; 9g) | 0.57 µM (≈ 0.4 µg/mL) | 

Source: ChEMBL document CHEMBL2034835, “A solvent free, four-component synthesis and 1,3-dipolar cycloaddition of 4(H)-pyrans with nitrile oxides: synthesis and discovery of antimycobacterial activity of enantiomerically pure 1,2,4-oxadiazoles” (2012)
